System: DU-145 multicell spheroids with HUVEC/MSC, viability
Assay: Anticancer human tumor DU-145 cell line growth inhibition [IpAb];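 note: spheroids exposed to agents for seven days before measurement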;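 for viability, T/C: percent of DMSO vehicle control viability so 100% = untreated level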
Conditions: for IC50: curve of first compound; for viability, T/C: stronger effect = lower value
Summary of the method: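 Multi-cell spheroids of 60% tumour cells, 25% HUVEC and 15% MSC in ultra-low-attachment U-bottom wells, treated with agents combined with ipatasertib or abemaciclib. Half-log ranges top out near clinical Cmax, or 10 microM when Cmax is unknown.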

[1] = second compound 0.1 µM, first compound 0.0316 µM
[2] = second compound 0.1 µM, first compound 0.1 µM
[3] = second compound 0.1 µM, first compound 0.316 µM
[4] = second compound 0.1 µM, first compound 1 µM
[5] = second compound 0.1 µM, first compound 3.16 µM
[6] = second compound 0.1 µM, first compound 10 µM
[7] = second compound 0.316 µM, first compound 0.0316 µM
[8] = second compound 0.316 µM, first compound 0.1 µM
[9] = second compound 0.316 µM, first compound 0.316 µM
[10] = second compound 0.316 µM, first compound 1 µM
[11] = second compound 0.316 µM, first compound 3.16 µM
[12] = second compound 0.316 µM, first compound 10 µM
[13] = second compound 1 µM, first compound 0.0316 µM
[14] = second compound 1 µM, first compound 0.1 µM
[15] = second compound 1 µM, first compound 0.316 µM
[16] = second compound 1 µM, first compound 1 µM
[17] = second compound 1 µM, first compound 3.16 µM
[18] = second compound 1 µM, first compound 10 µM
[19] = second compound 3.16 µM, first compound 0.0316 µM
[20] = second compound 3.16 µM, first compound 0.1 µM
[21] = second compound 3.16 µM, first compound 0.316 µM
[22] = second compound 3.16 µM, first compound 1 µM
[23] = second compound 3.16 µM, first compound 3.16 µM
[24] = second compound 3.16 µM, first compound 10 µM
[25] = second compound 10 µM, first compound 0.0316 µM
[26] = second compound 10 µM, first compound 0.1 µM
[27] = second compound 10 µM, first compound 0.316 µM
[28] = second compound 10 µM, first compound 1 µM
[29] = second compound 10 µM, first compound 3.16 µM
[30] = second compound 10 µM, first compound 10 µM
[31] = second compound 0.1 µM, first compound 0.00949 µM
[32] = second compound 0.1 µM, first compound 0.03 µM
[33] = second compound 0.1 µM, first compound 0.0949 µM
[34] = second compound 0.1 µM, first compound 0.3 µM
[35] = second compound 0.316 µM, first compound 0.00949 µM
[36] = second compound 0.316 µM, first compound 0.03 µM
[37] = second compound 0.316 µM, first compound 0.0949 µM
[38] = second compound 0.316 µM, first compound 0.3 µM
[39] = second compound 1 µM, first compound 0.00949 µM
[40] = second compound 1 µM, first compound 0.03 µM
[41] = second compound 1 µM, first compound 0.0949 µM
[42] = second compound 1 µM, first compound 0.3 µM
[43] = second compound 3.16 µM, first compound 0.00949 µM
[44] = second compound 3.16 µM, first compound 0.03 µM
[45] = second compound 3.16 µM, first compound 0.0949 µM
[46] = second compound 3.16 µM, first compound 0.3 µM
[47] = second compound 10 µM, first compound 0.00949 µM
[48] = second compound 10 µM, first compound 0.03 µM
[49] = second compound 10 µM, first compound 0.0949 µM
[50] = second compound 10 µM, first compound 0.3 µM

SMILES: C=CC(=O)N1CCN(c2nc(=O)n(-c3c(C)ccnc3C(C)C)c3nc(-c4c(O)cccc4F)c(F)cc23)C(C)C1 (stereo not given) + CC(C)NCC(C(=O)N1CCN(c2ncnc3c2C(C)CC3O)CC1)c1ccc(Cl)cc1
- IC50 (second compound 0.1 µM): 8760 nM
- IC50 (second compound 0.316 µM): 4170 nM
- IC50 (second compound 1 µM): < 31.6 nM
- IC50 (second compound 3.16 µM): < 31.6 nM
- IC50 (second compound 10 µM): < 31.6 nM
- viability, T/C [1]: 81.3%
- viability, T/C [2]: 87.7%
- viability, T/C [3]: 86.1%
- viability, T/C [4]: 92%
- viability, T/C [5]: 82.9%
- viability, T/C [6]: 45.5%
- viability, T/C [7]: 53.9%
- viability, T/C [8]: 55%
- viability, T/C [9]: 59.1%
- viability, T/C [10]: 59.2%
- viability, T/C [11]: 52.9%
- viability, T/C [12]: 37.8%
- viability, T/C [13]: 34%
- viability, T/C [14]: 35.5%
- viability, T/C [15]: 37.6%
- viability, T/C [16]: 37.4%
- viability, T/C [17]: 34.5%
- viability, T/C [18]: 28.3%
- viability, T/C [19]: 22.4%
- viability, T/C [20]: 21.9%
- viability, T/C [21]: 27.5%
- viability, T/C [22]: 24.4%
- viability, T/C [23]: 24.5%
- viability, T/C [24]: 20.7%
- viability, T/C [25]: 19.5%
- viability, T/C [26]: 19.3%
- viability, T/C [27]: 18.5%
- viability, T/C [28]: 21.6%
- viability, T/C [29]: 19.9%
- viability, T/C [30]: 17.1%

SMILES: CC(=O)c1c(C)c2cnc(Nc3ccc(N4CCNCC4)cn3)nc2n(C2CCCC2)c1=O + CC(C)NCC(C(=O)N1CCN(c2ncnc3c2C(C)CC3O)CC1)c1ccc(Cl)cc1
- IC50 (second compound 0.1 µM): > 300 nM
- IC50 (second compound 0.316 µM): > 300 nM
- IC50 (second compound 1 µM): < 0.949 nM
- IC50 (second compound 3.16 µM): < 0.949 nM
- IC50 (second compound 10 µM): < 0.949 nM
- viability, T/C (second compound 0.1 µM, first compound 0.000949 µM): 85.3%
- viability, T/C (second compound 0.1 µM, first compound 0.003 µM): 79.7%
- viability, T/C [31]: 83.4%
- viability, T/C [32]: 89.2%
- viability, T/C [33]: 81.8%
- viability, T/C [34]: 83.7%
- viability, T/C (second compound 0.316 µM, first compound 0.000949 µM): 53%
- viability, T/C (second compound 0.316 µM, first compound 0.003 µM): 52.1%
- viability, T/C [35]: 52.2%
- viability, T/C [36]: 48.1%
- viability, T/C [37]: 48.8%
- viability, T/C [38]: 54.7%
- viability, T/C (second compound 1 µM, first compound 0.000949 µM): 29.3%
- viability, T/C (second compound 1 µM, first compound 0.003 µM): 30.7%
- viability, T/C [39]: 28.9%
- viability, T/C [40]: 28.7%
- viability, T/C [41]: 28.6%
- viability, T/C [42]: 27.8%
- viability, T/C (second compound 3.16 µM, first compound 0.000949 µM): 20.3%
- viability, T/C (second compound 3.16 µM, first compound 0.003 µM): 19.7%
- viability, T/C [43]: 19.2%
- viability, T/C [44]: 19.5%
- viability, T/C [45]: 20.3%
- viability, T/C [46]: 19.9%
- viability, T/C (second compound 10 µM, first compound 0.000949 µM): 16.8%
- viability, T/C (second compound 10 µM, first compound 0.003 µM): 15.5%
- viability, T/C [47]: 15.5%
- viability, T/C [48]: 17.2%
- viability, T/C [49]: 15.6%
- viability, T/C [50]: 16.1%

SMILES: CC(C)(C)c1cnc(CSc2cnc(NC(=O)C3CCNCC3)s2)o1 + CC(C)NCC(C(=O)N1CCN(c2ncnc3c2C(C)CC3O)CC1)c1ccc(Cl)cc1
- IC50 (second compound 0.1 µM): 107 nM
- IC50 (second compound 0.316 µM): 81.5 nM
- IC50 (second compound 1 µM): < 9.49 nM
- IC50 (second compound 3.16 µM): < 9.49 nM
- IC50 (second compound 10 µM): < 9.49 nM
- viability, T/C [31]: 89.1%
- viability, T/C [32]: 92%
- viability, T/C [33]: 54.7%
- viability, T/C [34]: 10%
- viability, T/C (second compound 0.1 µM, first compound 0.949 µM): 6.37%
- viability, T/C (second compound 0.1 µM, first compound 3 µM): 5.76%
- viability, T/C [35]: 60.1%
- viability, T/C [36]: 60.2%
- viability, T/C [37]: 48.5%
- viability, T/C [38]: 8.51%
- viability, T/C (second compound 0.316 µM, first compound 0.949 µM): 6.34%
- viability, T/C (second compound 0.316 µM, first compound 3 µM): 5.65%
- viability, T/C [39]: 33.1%
- viability, T/C [40]: 38.5%
- viability, T/C [41]: 31.7%
- viability, T/C [42]: 7.62%
- viability, T/C (second compound 1 µM, first compound 0.949 µM): 5.87%
- viability, T/C (second compound 1 µM, first compound 3 µM): 5.13%
- viability, T/C [43]: 23.1%
- viability, T/C [44]: 25.1%
- viability, T/C [45]: 24%
- viability, T/C [46]: 8.35%
- viability, T/C (second compound 3.16 µM, first compound 0.949 µM): 5.85%
- viability, T/C (second compound 3.16 µM, first compound 3 µM): 5.4%
- viability, T/C [47]: 18.1%
- viability, T/C [48]: 21.6%
- viability, T/C [49]: 15.7%
- viability, T/C [50]: 6.3%
- viability, T/C (second compound 10 µM, first compound 0.949 µM): 5.1%
- viability, T/C (second compound 10 µM, first compound 3 µM): 4.5%

SMILES: Cc1nc(NC(=O)N2CCCC2C(N)=O)sc1-c1ccnc(C(C)(C)C(F)(F)F)c1 (stereo not given) + CC(C)NCC(C(=O)N1CCN(c2ncnc3c2C(C)CC3O)CC1)c1ccc(Cl)cc1
- IC50 (second compound 0.1 µM): 94.7 nM
- IC50 (second compound 0.316 µM): < 31.6 nM
- IC50 (second compound 1 µM): < 31.6 nM
- IC50 (second compound 3.16 µM): < 31.6 nM
- IC50 (second compound 10 µM): < 31.6 nM
- viability, T/C [1]: 65.7%
- viability, T/C [2]: 49.2%
- viability, T/C [3]: 32.1%
- viability, T/C [4]: 27.9%
- viability, T/C [5]: 18.1%
- viability, T/C [6]: 7.81%
- viability, T/C [7]: 40%
- viability, T/C [8]: 35%
- viability, T/C [9]: 26.2%
- viability, T/C [10]: 22.4%
- viability, T/C [11]: 14.7%
- viability, T/C [12]: 6.56%
- viability, T/C [13]: 27.1%
- viability, T/C [14]: 24.3%
- viability, T/C [15]: 20.5%
- viability, T/C [16]: 17.1%
- viability, T/C [17]: 12.4%
- viability, T/C [18]: 5.68%
- viability, T/C [19]: 18.3%
- viability, T/C [20]: 18.5%
- viability, T/C [21]: 14.1%
- viability, T/C [22]: 14%
- viability, T/C [23]: 8.48%
- viability, T/C [24]: 5.66%
- viability, T/C [25]: 14.9%
- viability, T/C [26]: 13.5%
- viability, T/C [27]: 11.8%
- viability, T/C [28]: 9.73%
- viability, T/C [29]: 8.28%
- viability, T/C [30]: 5.36%

SMILES: Cn1nccc1Nc1nccc(-c2ccn(C(CO)c3ccc(Cl)c(F)c3)c(=O)c2)n1 (stereo not given) + CC(C)NCC(C(=O)N1CCN(c2ncnc3c2C(C)CC3O)CC1)c1ccc(Cl)cc1
- IC50 (second compound 0.1 µM): > 10000 nM
- IC50 (second compound 0.316 µM): < 31.6 nM
- IC50 (second compound 1 µM): < 31.6 nM
- IC50 (second compound 3.16 µM): < 31.6 nM
- IC50 (second compound 10 µM): < 31.6 nM
- viability, T/C [1]: 65.6%
- viability, T/C [2]: 57.1%
- viability, T/C [3]: 60%
- viability, T/C [4]: 76.8%
- viability, T/C [5]: 99%
- viability, T/C [6]: 66.2%
- viability, T/C [7]: 42.6%
- viability, T/C [8]: 36.2%
- viability, T/C [9]: 35.8%
- viability, T/C [10]: 45.7%
- viability, T/C [11]: 66.3%
- viability, T/C [12]: 60.3%
- viability, T/C [13]: 27.4%
- viability, T/C [14]: 24.6%
- viability, T/C [15]: 26.2%
- viability, T/C [16]: 30.7%
- viability, T/C [17]: 42.3%
- viability, T/C [18]: 47.6%
- viability, T/C [19]: 18.7%
- viability, T/C [20]: 16.5%
- viability, T/C [21]: 19.3%
- viability, T/C [22]: 20.7%
- viability, T/C [23]: 27.6%
- viability, T/C [24]: 36.8%
- viability, T/C [25]: 13.4%
- viability, T/C [26]: 11.6%
- viability, T/C [27]: 11.7%
- viability, T/C [28]: 14.3%
- viability, T/C [29]: 21.7%
- viability, T/C [30]: 24.6%

Reference: PubChem BioAssay AID2060335 (Molecular Pharmacology Branch, DTP, NCI, 2025)
